The test system of assay [1] is human pleural mesothelioma cells NCI-H226. As to the kind of experiment: Cell anti-proliferation experiment (CCK8), NCI-H226. In kind it is cell-based. From the text: TEST EXAMPLE 1 CELL ANTI-PROLIFERATION EXPERIMENT
Determination of proliferation inhibition of YAP-TEAD inhibitor compounds on human pleural mesothelioma cells NCI-H226
Experimental materials and equipments: Human pleural mesothelioma cells NCI-H226 was purchased from NANJING COBIOER BIOSCIENCES CO., LTD. RPMI-1640 medium (Bio-Channel), DMSO (dimethyl sulfoxide), CCK8 (WST-8) Cell Assay Kit (Beyotime), 0.25% EDTA-Tripsin (trypsin digest), 1×PBS (phosphate buffer, PH7.2), 96-well plate (Corning), fetal bovine serum (FBS), 10,000 U/mL penicillin-G/streptomycin, high-speed freezing centrifuge (EPPENDORF 5810R), enzyme-linked immunosorbent assay (Tecan Spark).
1. Cell plating • A) Tumor cells were cultured to 80-90% density in RPMI-1640 (containing 10% FBS and 100 U/mL penicillin-G/streptomycin) under the condition of 37° C., 5% CO2 and saturated humidity. • B) The culture medium was removed from the 10 cm culture dish. • C) Cells were washed with 10 ml 1×PBS. • D) 4 ml of 0.25% EDTA-Tripsin was added to digest pancreatin for 5 minutes in an incubator at 37° C. and 5% CO2. Then the mixture was transferred to a 15 ml centrifuge tube, and centrifuged for 5 minutes at 200 g. The supernatant was discarded to obtain cell precipitation. • E) The cell precipitation was resuspended with 4 ml of […], counted and adjusted to 10,000 cells/ml. • F) The cell suspension was added to a 96-well plate with a volume of 100 μL per well and cultured overnight in an incubator at 37° C. and 5% CO2.
• Compound dilution • A) Preparation of gradient dilution solutions of the tested compounds: the tested compounds was configured to 1 mM stock solution. Then […] of stock solution was dissolved in 1.5 ml of DMSO-free culture solution, and then 3-fold continuous gradient dilution with 0.1% DMSO culture solution was performed to get a total of 9 concentrations. The diluted concentrations of the compound were as follows: 333.33 nM, 111.11 nM, 37.03 nM, 12.35 nM, 4.15 nM, 1.37 nM, 0.46 nM, 0.15 nM • B) After full mixing, 100 μL of culture compound solution was taken to replace the culture solution in the cell culture plate, with 4 duplicated wells at each concentration; • C) The cells were transferred to the incubator to incubate for 3 days.
• A) the cell culture plate was taken out and added with 10 μl of CCK-8 (WST-8) solution per well in the biosafety cabinet; • B) The cell culture plate was put back into the incubator and continued to incubate for 3 hours; • C) 450 nm wavelength was selected to measure absorbance value on TECAN enzyme linked immunosorbent assay detector.
The following formula was used to calculate the cell viability (% Cell Viability); • Cell Viability (%)=[A(Drug-added)-A(Blank)]/[A(0 Drug-added)-A(blank)][…] • A (Drug-added): The absorbance of wells containing cells, CCK8 solution, and drug solution. • A (Blank): The absorbance of wells containing culture medium and CCK8 solution, but without cells. • A (0 Drug-added): The absorbance of wells containing cells, CCK8 solution, but without drug solution. • Cell viability: Cell proliferation viability or cytotoxicity viability was determined by the IC50 value obtained by curve fitting using GraphPad Prism 8 software.

The subject of assay [2] is YAP-TEAD. As to the kind of experiment: YAP-TEAD inhibitor activity by Nano luciferase method (8xGTiiC-nLuc reporter in 293T cells). In kind it is cell-based. To be noted: Homo sapiens, HEK-293T, 48 hours incubation, read-out: Nano-luciferase detection (IC50). From the text:
EXAMPLE 2: YAP-TEAD INHIBITOR ACTIVITY WAS DETECTED BY NANO LUCIFERASE METHOD
(1) Experimental materials and equipments: 293T cells were purchased from NANJING COBIOER BIOSCIENCES CO., LTD. DMEM medium (High sugar, no phenol red, Bio-Channel), DMSO (dimethyl sulfoxide), Lipo6000™ transfection reagent (Beyotime), pGL3B-8xGTiiC-nLuc-CMV-fLuc plasmid, 0.25% EDTA-Tripsin (trypsin digest), 1×PBS (phosphate buffer, PH7.2), 96-well white cell culture plate (PerkinElmer), fetal bovine serum (FBS), 10,000 U/mL penicillin-G/streptomycin, high-speed freezing centrifuge (EPPENDORF 5810R), 37° C. CO2 incubator, Vi-cell® Cell Counter, Envision Microplate Reader (PerkinElmer).
The revived 293T cells were inoculated into a 10 cm culture dish and placed in an incubator with 5% CO2, and cultured at constant temperature of 37° C. To ensure transfection efficiency, cells at logarithmic phase (cell density of approximately 50%-70%) should be used.
On the day before transfection, cells at the logarithmic phase were digested with Trypsin-EDTA, and culture medium was added to terminate digestion. The cell suspension was prepared by blowing and mixing using a pipette.
Cell concentration was measured using Vi-cell, and the cell suspension was diluted to a suspension of 5*10^^5 cells per milliliter. After preparing the cell suspension, the suspension was gently mixed. 10 ml of liquid was added to a 10 cm culture dish. In this way, the number of cells in each 10 cm culture dish was 5*10^^6. The cells were incubated at a constant temperature of 37° C. for 1 day in an incubator with 5% CO2.
Two clean and sterile centrifuge tubes were taken and added with 750 μL opti-MEM Medium without antibiotics and serum, respectively. Then one tube was added with 15 μg Plasmid (pGL3B-8xGTiiC-nLuc-CMV-fLuc), and gently blew and mixed well using a pipette; the other tube was added with Lipo6000 transfection reagent, and gently blew and mixed using a pipette. After standing at room temperature for 5 minutes, the culture solution containing DNA was added gently to the culture solution containing Lipo6000 transfection reagent, and mixed well by gently inverting the centrifuge tube, then standing at room temperature for 5 minutes.
The above mixture was added evenly to a 10 cm culture dish and replaced with fresh complete culture medium after 6 hours of cultivation.
After transfection for 1 day, cells were digested with Trypsin EDTA, and culture medium was added to terminate the digestion. The cell suspension was prepared by blowing and mixing using a pipette.
Cell concentration was measured using Vi-cell, and the cell suspension was diluted to a suspension of 20000 cells per milliliter.
After preparing the cell suspension, the suspension was gently mixed, and added to 96-well plate with 100 μL per well. Thus, the density of the cells to be tested is 2000 cells per well.
The inoculated cell culture plate was placed in the incubator for cultivation, and after about 24 hour, compounds with concentration gradient were added.
10 mM compound stock solution was diluted with culture medium to 50 μM. Compound solution of 50 μM was added to the third column of the deep well plate, 216 μL of culture medium containing 0.5% DMSO was added to the fourth to eleventh columns, successively.
Gradient dilution: taking 100 μL of solution from the third column and adding the solution to the fourth column and mixing well; then taking 100 µL of solution from the fourth column again and adding the solution to the fifth column, repeating this operation until the eleventh column.
Taking 25 μL of compound solution from the deep well plate and adding it to a 96-well culture plate using a multi-channel pipette. Repeating four times on the 96 well plate for each compound. Finally, a concentration gradient of 1:3.16 was formed in the 96-well plate with a maximum concentration of 10,000 nM. The • (5) Addition of Nano Luciferase Detection Reagent and Read […]

Regarding `CNS(=O)(=O)c1ccc2c(c1)-c1ncn(C)c1CN2Cc1ccc(C(F)(F)F)cc1` [Example T-49], the IC50 in assay [1] and in assay [2] was ≤ 1000 nM throughout.

`CC(C)NC(=O)c1ccc2c(c1)cc(Br)c(=O)n2-c1ccc(C(F)(F)F)cc1` [Example T-50]: the IC50 in assay [1] and in assay [2] was 1000 to 5000 nM each time.

For the compound `CNS(=O)(=O)c1ccc2c(c1)-c1nn(C)cc1CC(=O)N2c1ccc(C(F)(F)F)cc1` [Example T-51], the concentration for half-maximal inhibition (IC50) in assay [1] and in assay [2] was ≤ 1000 nM throughout.

Turning to `CNS(=O)(=O)c1ccc2c(c1)-c1cn(C)nc1CC(=O)N2c1ccc(C(F)(F)F)cc1` [Example T-52], the half-maximal inhibitory concentration (IC50) in assay [1] and in assay [2] was ≤ 1000 nM throughout.

Take `CNS(=O)(=O)c1ccc2c(c1)-c1nn(C)cc1CCN2c1ccc(C(F)(F)F)cc1` [Example T-54]: the IC50 in assay [1] and in assay [2] was ≤ 1000 nM in each case.

For `CNS(=O)(=O)c1ccc2c(c1)-c1cn(C)nc1CCN2c1ccc(C(F)(F)F)cc1` [Example T-55], the IC50 in assay [1] and in assay [2] was ≤ 1000 nM in each case.

Consider `CNS(=O)(=O)c1ccc2c(c1)c1ncn(C)c1c(=O)n2-c1cccc(C(F)(F)F)c1` [Example T-57], for which the 50% inhibitory concentration (IC50) in assay [1] and in assay [2] was ≤ 1000 nM each time.

For `CNS(=O)(=O)c1ccc2c(c1)c1nn(C)cc1c(=O)n2-c1cccc(C(F)(F)F)c1` [Example T-58], the IC50 in assay [1] and in assay [2] was ≤ 1000 nM in each case.

As to `CNS(=O)(=O)c1ccc2c(c1)c1ncn(C)c1c(=O)n2-c1ccccc1` [Example T-60], the concentration for half-maximal inhibition (IC50) in assay [1] and in assay [2] was ≤ 1000 nM in each case.

With `CNS(=O)(=O)c1ccc2c(c1)c1nn(C)cc1c(=O)n2-c1ccccc1` [Example T-61], the IC50 in assay [1] and in assay [2] was ≤ 1000 nM throughout.

On to `CNS(=O)(=O)c1ccc2c(c1)c1nn(C)cc1c(=O)n2-c1ccc(F)cc1` [Example T-65], for which the 50% inhibitory concentration (IC50) in assay [1] and in assay [2] was ≤ 1000 nM in each case.

Regarding `CNS(=O)(=O)c1ccc2c(c1)c1cn(C)nc1c(=O)n2-c1ccc(F)c(F)c1` [Example T-66], the 50% inhibitory concentration (IC50) in assay [1] and in assay [2] was ≤ 1000 nM in each case.

With `CNS(=O)(=O)c1ccc2c(c1)c1nn(C)cc1c(=O)n2-c1ccc(F)c(F)c1` [Example T-68], the IC50 in assay [1] and in assay [2] was ≤ 1000 nM in each case.

For `CNS(=O)(=O)c1ccc2c(c1)c1nn(C)cc1c(=O)n2-c1cccc(F)c1` [Example T-72], the IC50 in assay [1] and in assay [2] was ≤ 1000 nM in each case.

For `CNS(=O)(=O)c1ccc2c(c1)c1nn(C)cc1c(=O)n2-c1cccc(C)c1` [Example T-79], the concentration for half-maximal inhibition (IC50) in assay [1] was 1000 to 5000 nM; in assay [2], ≤ 1000 nM.

Turning to `CNS(=O)(=O)c1ccc2c(c1)c1nn(C)cc1c(=O)n2-c1ccc(C)cc1` [Example T-82], the IC50 in assay [1] and in assay [2] was ≤ 1000 nM each time.

In the case of `CC(C)NC(=O)c1ccc2c(c1)c1nn(C)cc1c(=O)n2-c1ccc(C(F)(F)F)cc1` [Example T-86], the IC50 in assay [1] and in assay [2] was ≤ 1000 nM in each case.

As to `COC(=O)c1ccc2c(c1)c1ncn(C)c1c(=O)n2-c1ccc(C(F)(F)F)cc1` [Example T-99], the IC50 in assay [1] and in assay [2] was 1000 to 5000 nM each time.

As to `COC(=O)c1ccc2c(c1)c1nn(C)cc1c(=O)n2-c1ccc(C(F)(F)F)cc1` [Example T-100], the IC50 in assay [1] and in assay [2] was 1000 to 5000 nM throughout.

As for `Cn1cc2c(=O)n(-c3ccc(C(F)(F)F)cc3)c3ccc(C(=O)NC(C)(C)C)cc3c2n1` [Example T-101], the half-inhibitory concentration (IC50) in assay [1] and in assay [2] was ≤ 1000 nM throughout.

On to `Cn1cc2c(=O)n(-c3ccc(C(F)(F)F)cc3)c3ccc(C(=O)NC4CC4)cc3c2n1` [Example T-102], for which the half-maximal inhibitory concentration (IC50) in assay [1] and in assay [2] was ≤ 1000 nM throughout.

As to `COCC(C)NC(=O)c1ccc2c(c1)c1nn(C)cc1c(=O)n2-c1ccc(C(F)(F)F)cc1` (stereo not shown) [Example T-107], the IC50 in assay [1] and in assay [2] was ≤ 1000 nM each time.

For the compound `Cn1cc2c(=O)n(-c3ccc(C(F)(F)F)cc3)c3ccc(C(=O)O)cc3c2n1` [Example T-110], the IC50 in assay [1] and in assay [2] was 1000 to 5000 nM throughout.

Take `CNC(=O)c1ccc2c(c1)c1nn(C)cc1c(=O)n2-c1ccc(C(F)(F)F)cc1` [Example T-111]: the IC50 in assay [1] and in assay [2] was ≤ 1000 nM throughout.

As to `Cn1cc2c(=O)n(-c3ccc(C(F)(F)F)cc3)c3ccc(C(=O)NCc4ccccn4)cc3c2n1` [Example T-113], the concentration for half-maximal inhibition (IC50) in assay [1] and in assay [2] was ≤ 1000 nM each time.

For `Cn1cc2c(=O)n(-c3ccc(C(F)(F)F)cc3)c3ccc(C(N)=O)cc3c2n1` [Example T-114], the concentration for half-maximal inhibition (IC50) in assay [1] was ≤ 1000 nM; in assay [2], 1000 to 5000 nM.

Regarding `CN(C)Cc1cccc(NC(=O)c2ccc3c(c2)c2nn(C)cc2c(=O)n3-c2ccc(C(F)(F)F)cc2)c1` [Example T-115], the IC50 in assay [1] and in assay [2] was 1000 to 5000 nM throughout.

Consider `CN(C)CCCNC(=O)c1ccc2c(c1)c1nn(C)cc1c(=O)n2-c1ccc(C(F)(F)F)cc1` [Example T-118], for which the concentration for half-maximal inhibition (IC50) in assay [1] and in assay [2] was 1000 to 5000 nM in each case.

With `CNC[C@H](C)NC(=O)c1ccc2c(c1)c1nn(C)cc1c(=O)n2-c1ccc(C(F)(F)F)cc1` [Example T-120], the IC50 in assay [1] and in assay [2] was 1000 to 5000 nM each time.

The record behind these values is patent US20250154105A1, “POLYCYCLIC COMPOUND AND USE THEREOF” (TYK MEDICINES, INC., priority 2021, published 2025).
